The results in this text go back to US4772633A, “6-pyridyl- and 6-phenyl-3-phenyl-1-hexenes and -1-hexynes, composition containing them, and insecticidal and acaricidal method of using them” (Sumitomo Chemical Company, Limited, priority 1986, dated 1988).

In general, mortality refers to the percentage killed. The LC50 is the concentration lethal to half of the exposed cells or organisms.

Values after ≈ are worked out from the molar mass of the structure shown. Read-outs that look alike come from different tables or passages of the source.

Holding throughout (format): in vivo
The test system of data set [1] is common mosquito (Culex pipiens pallens). As to the kind of experiment: Test Example 1: mortality of larvae and inhibition of emergence of common mosquito. The following applies: for Inhibitory ratio of emergence: 3.5 ppm, counted when all mosquitoes of no treatment group had emerged; for mortality at 3.5 ppm: Culex pipiens, 24 h, last instar larvae, after one day. Here is the method:
The emulsifiable concentrates of the following present compounds obtained according to Formulation example 2 were each diluted with water so as to obtain respective aqueous solutions containing 3.5 ppm of said compounds, respectively. One hundred ml of thus diluted aqueous solutions were poured into respective polyethylene cups of 180 ml volume, and 20 of the last instar larvae of common mosquito (Culex pipiens pallens) were liberated thereto. After one day, the dead or alive of the larvae were examined. Thereafter, the feed was added to respective cups and the number of emerged mosquitoes of the respective cups was counted when all the mosquitoes of no treatment group had […] to calculate the inhibitory ratios of the emergence. The mortality and the inhibitory ratio of the emergence are shown according to the following three criteria: mortality: A; 90% or more, […] inhibitory: A; 90% or more, ratio of emergence B; less than 90% to 80% C; less than 80%.

The test system of data set [2] is brown rice planthoppers (Nilaparavata lugens). As to the kind of experiment: Test Example 7: mortality and residual effect on brown rice planthoppers on sprayed potted rice plants. The following applies: Oryza sativa, 24 h. Here is the method: The emulsifiable concentrates of the following compounds and control compounds obtained according to Formulation example 2 were each diluted with water one thousand times (corresponding to 100 ppm) and each of thus prepared solutions was sprayed at the rate of 20 ml/2 pots to the rice plant seedlings planted in Wagner pots having a surface area of one ten thousandth are. After air-drying, the threated plants were covered with the iron wire cages, and about 15 adults of brown rice planthoppers (Nilaparavata lugens) were liberated thereto. Further, about 15 adults thereof were also liberated thereto 4 days after the application to examine the residual effects. Twenty four hours after each liberation, the dead and alive adults were examined to calculate the mortality.

For data set [3], the system named is carmine spider mite (Tetranychus cinnabarinus). As to the kind of experiment: Test Example 8: degree of damage of kidney bean plant by carmine spider mite. Details: key: -: No damage is observed.; +: Slight damage is observed.; ++: The same damage as in the untreated plot is observed. The following applies: 500 ppm, sprayed 15 ml/pot plus 2 ml to soil; after 8 days; 25° C. Here is the method:
The female adults of carmine spider mite (Tetranychus cinnabarinus) were put at a rate of 10 adults/leaf on the leaves of potted kidney bean (at the primordial leaf stage) which had elapsed 7 days after sowing, and placed in a constant-temperature room kept at 25° C. After 6 days, the 200-fold aqueous dilute solutions (corresponding to 500 ppm), prepared from the emulsifiable concentrates of the following present compounds and control compounds prepared according to Formulation example 2, were each sprayed at a rate of 15 ml/pot on a turn table. At the same time, the soil in the pot was treated with 2 ml of each aqueous solution. After 8 days, the degree of damage of the plant by the mite was examined.
-: No damage is observed.
+: Slight damage is observed.
++: The same damage as in the untreated plot is observed.

The test system of data set [4] is young Japanese carp (Cyprinida carpio). As to the kind of experiment: Test Example 9: fish toxicity test. The following applies: forty-eight hours, 25°±1° C., Probit method, 2880 min. Here is the method:
Twenty liters of each of the aqueous solutions containing the prescribed concentrations of the present compounds and comparative control one, and 10 young carp were liberated thereto. Forty-eight hours after, the dead and alive carp were examined to obtain LC50 value, (50% lethal concentration) according to Probit method. All the tests were carried out in thermostatic aquaria whose temperatures were kept at 25°±1° C.
young Japanese carp (Cyprinida carpio)
Average body length ±S.D.: 2.94±0.19 cm.
Average body weight ±S.D.: 0.65±0.13 g.

In data set [5] the test system is tobacco cutworms (Spodoptera litura). Briefly: Test Example 2: mortality of tobacco cutworm 4th instar larvae on treated artificial feed. The following applies: 144 h, 2 ml in 13 g artificial feed, six days after, two replications. An excerpt:
Two ml of thus diluted solutions were impregnated into the artificial feeds (13 g) for tobacco cutworms (Spodoptera litura) and thus prepared feeds were placed in polyethylene cups of 11 cm in diameter, respectively. Ten of the 4th instar larvae were liberated thereon.
Six days after, the dead and alive of the larvae were examined to calculate the mortality (two replications).

Data set [6] concerns resistant strain of green rice leafhopper (Nephotetix cincticecs). As to the kind of experiment: Test Example 3: LC50 against adults of a resistant strain of green rice leafhopper (rice seedling dipping). The conditions noted are these: Nephotettix cincticeps, 24 h, read-out: LC50 value. Here is the method:
The emulsifiable concentrates of the following present compounds and control compounds obtained according to Formulation example 2 were each diluted with water to a prescribed concentration, and rice seedlings (about 12 cm in length) were dipped for 1 minute in the resulting aqueous dilute solutions. After air-drying, the seedlings were placed in test tube, and 10 adults of a resistant strain of green rice leafhopper (Nephotetix cincticecs) were liberated in the tube. After one day, the dead and alive of the adults were examined to obtain LC50 (50% lethal concentration)(two replications).

The subject of data set [7] is brown rice planthopper (Nilaparvata lugens). Briefly: Test Example 4: LC50 against adults of brown rice planthopper (rice seedling dipping). The conditions noted are these: 24 h, rice seedlings dipped, 10 adults, after one day, two replications. An excerpt:
After air-drying, the seedlings were placed in a test tube, and 10 adults of brown rice planthopper (Nilaparvata lugens) were liberated in the tube.

The subject of data set [8] is rice stem borer (Chilo suppressalis). Briefly: Test Example 5: LC50 against rice stem borer larvae (artificial feed). The following applies: larvae 10 days old, two replications. An excerpt:
Ten of the larvae of the 10 days old were liberated thereon.

Data set [9] concerns houseflies (Musca domestica) of WHO strains. Briefly: Test Example 6: LC50 against adult female houseflies of WHO strains (sucrose bait). The following applies: filter paper with sucrose bait, adult females, after 48 hours, two replications. An excerpt: Thirty milligrams of sucrose were uniformly placed on the filter paper as bait. Thereafter, 10 adult female houseflies (Musca domestica) of WHO strains were liberated in the cup, which was then covered witha lid.

[10] abbreviates: read-out: Mortality (%) liberated 4 days after application.
Where [11] appears, read: read-out: Mortality (%) liberated just after air-drying.
Where [12] appears, read: rice seedlings dipped 1 minute, 10 adults, after one day, two replications.

With `C=CC(C)(CCCc1cccc(Oc2ccccc2)c1)c1ccc(OCC)cc1` (stereo not drawn) [(1), 3-(4-ethoxyphenyl)-3-methyl-6-(3-phenoxyphenyl)-1-hexene], in [1], the “Inhibitory ratio of emergence” value is “A (90% or more)”. The molecule also had a mortality at 3.5 ppm in data set [1] of over 90%. Also, the mortality at 100 ppm in data set [2] (setting [10]) and in data set [2] (setting [11]) was 100% each time. Moreover, the Degree of damage result in data set [3] is “- ~ +”.
On to `C=CC(C)(CCCc1ccc(F)c(Oc2ccccc2)c1)c1ccc(OCC)cc1` (stereo not drawn) [(2), 3-(4-Ethoxyphenyl)-3-methyl-6-(3-phenoxy-4-fluorophenyl)-1-hexene], for which, in data set [1], the “Inhibitory ratio of emergence” value is listed as “A (90% or more)” and the mortality at 3.5 ppm was over 90%. Besides, the mortality at 100 ppm in data set [2] (setting [10]) amounted to 100%. The mortality at 100 ppm in data set [2] (setting [11]) amounted to 100%. Also, the Degree of damage result in [3] is recorded as “-”.
On to `C#CC(C)(CCCc1cccc(Oc2ccccc2)c1)c1ccc(OCC)cc1` (stereo not drawn) [(3), 3-(4-ethoxyphenyl)-3-methyl-6-(3-phenoxyphenyl)-1-hexyne], for which, in data set [1], the “Inhibitory ratio of emergence” value is recorded as “A (90% or more)” and the mortality at 3.5 ppm was over 90%. Moreover, in data set [2] (setting [10]), the mortality at 100 ppm is 95%. Also, the mortality at 100 ppm in [2] (setting [11]) came to 100%. In [3], the Degree of damage entry is recorded as “-”. Also, in data set [4], the “LC50 value (fish toxicity)” value was over 10 ppm.
For `C#CC(C)(CCCc1ccc(F)c(Oc2ccccc2)c1)c1ccc(OCC)cc1` (stereo not drawn) [(4), 3-(4-Ethoxyphenyl)-3-methyl-6-(3-phenoxy-4-fluorophenyl)-1-hexyne], in data set [1], the “Inhibitory ratio of emergence” value is “A (90% or more)” and the mortality at 3.5 ppm is over 90%. Besides, the mortality at 100 ppm in data set [2] (setting [10]) worked out at 100%. In data set [2] (setting [11]), the mortality at 100 ppm is 100%. The Degree of damage entry in [3] is “-”. The “LC50 value (fish toxicity)” value in data set [4] is given as over 10 ppm.
For the molecule `C#CC(C)(CCCc1cccc(Oc2ccccc2)c1)c1ccc(OCC=C)cc1` (stereo not drawn) [(7), 3-(4-allyloxyphenyl)-3-methyl-6-(3-phenoxyphenyl)-1-hexyne], in [1], the “Inhibitory ratio of emergence” value was “A (90% or more)”. Also, in data set [1], the mortality at 3.5 ppm was 10 to 90%. Also, the mortality at 100 ppm was determined as 93% in data set [2] (setting [10]) and 100% in data set [2] (setting [11]). For the same molecule, in data set [3], the Degree of damage result is listed as “-”.
Consider `C#CC(C)(CCCc1cccc(Oc2ccccc2)c1)c1ccc(C(F)(F)F)cc1` (stereo not drawn) [(13), 3-(4-Trifluoromethylphenyl)-3-methyl-6-(3-phenoxyphenyl)-1-hexyne], for which, in data set [1], the “Inhibitory ratio of emergence” value is “A (90% or more)” and the mortality at 3.5 ppm was over 90%. Moreover, the mortality at 150 ppm in data set [5] turned out to be 100%. For the same molecule, the LC50 in data set [6] amounted to 10 µg/mL (≈ 24.5 µM). In data set [3], the Degree of damage result is recorded as “-”.
On to `C#CC(C)(CCCc1cccc(Oc2ccccc2)c1)c1ccc(OCC)c(Cl)c1` (stereo not drawn) [(16), 3-(3-Chloro-4-ethoxyphenyl)-3-methyl-6-(3-phenoxyphenyl)-1-hexyne], for which, in data set [1], the “Inhibitory ratio of emergence” value is “A (90% or more)” and the mortality at 3.5 ppm was 10 to 90%. The Degree of damage entry in data set [3] is reported as “-”.
Turning to `C#CC(C)(CCCc1cccc(Oc2ccccc2)c1)c1ccc(OC(F)F)cc1` (stereo not drawn) [(17), 3-(4-difluoromethoxyphenyl)-3-methyl-6-(3-phenoxyphenyl)-1-hexyne], in [1], the “Inhibitory ratio of emergence” value is “A (90% or more)” and the mortality at 3.5 ppm is over 90%. Moreover, in data set [3], the Degree of damage entry was “-”.
For `C#CC(C)(CCCc1cccc(Oc2ccccc2)n1)c1ccc(OCC)cc1` (stereo not drawn) [(18), 3-(4-ethoxyphenyl)-3-methyl-6-(6-phenoxypyridin-2-yl)-1-hexyne], in [1], the “Inhibitory ratio of emergence” value is recorded as “A (90% or more)” and the mortality at 3.5 ppm was over 90%. Besides, the Degree of damage entry in data set [3] is recorded as “- ~ +”.
In the same order, the values of `C#CC(C)(CCCc1ccc(F)c(Oc2ccccc2)n1)c1ccc(OCC)cc1` (stereo not drawn) [(20)] are “A (90% or more)”, over 90% and “- ~ +”.
In the case of `C#CC(C)(CCCc1cccc(Oc2ccccc2)c1)c1ccc(Cl)cc1` (stereo not drawn) [(25), 3-(4-Chlorophenyl)-3-methyl-6-(3-phenoxyphenyl)-1-hexyne], in data set [1], the “Inhibitory ratio of emergence” value is “A (90% or more)” and the mortality at 3.5 ppm was over 90%. Moreover, in data set [3], the Degree of damage result is recorded as “-”.
Consider `C#CC(C)(CCCc1ccc(F)c(Oc2ccccc2)c1)c1ccc(C(F)(F)F)cc1` (stereo not drawn) [(37), 3-(4-Trifluoromethylphenyl)-3-methyl-6-(3-phenoxy-4-fluorophenyl)-1-hexyne], for which, in data set [1], the “Inhibitory ratio of emergence” value was “A (90% or more)” and the mortality at 3.5 ppm was over 90%. Further, in [6] (setting [12]), the LC50 worked out at 14 µg/mL (≈ 32.8 µM).
As to `C#CC(C)(CCCc1ccc(F)c(Oc2ccccc2)c1)c1ccc(CC)cc1` (stereo not drawn) [(39), 3-(4-Ethylphenyl)-3-methyl-6-(3-phenoxy-4-fluorophenyl)-1-hexyne], in data set [1], the “Inhibitory ratio of emergence” value is listed as “A (90% or more)” and the mortality at 3.5 ppm was over 90%. For the same molecule, the Degree of damage result in [3] was “- ~ +”.
`C#CC(CCCc1ccc(F)c(Oc2ccccc2)c1)c1ccc(OCC)cc1` (stereo not drawn) [(43), 3-(4-Ethoxyphenyl)-6-(3-phenoxy-4-fluorophenyl)-1-hexyne]: in data set [1], the “Inhibitory ratio of emergence” value is listed as “A (90% or more)” and the mortality at 3.5 ppm is over 90%. Moreover, the Degree of damage entry in [3] is listed as “- ~ +”.
Regarding `CCC(C)(CCCc1cccc(Oc2ccccc2)c1)c1ccc(Cl)cc1` (stereo not drawn) [(A), reference compound], the LC50 in data set [6] was about 500 µg/mL (≈ 1320 µM); in data set [7], over 500 µg/mL; in [8], 230 µg/mL (≈ 607 µM); in data set [9], about 500 µg/mL (≈ 1320 µM). The figures for the mortality at 100 ppm in data set [2] (setting [10]) and in data set [2] (setting [11]) were 44% and 71%, respectively. In addition, in data set [3], the Degree of damage result is “+ ~ ++”.
On to `CCOc1ccc(C(C)(C)COCc2cccc(Oc3ccccc3)c2)cc1` [(B), reference compound], for which the mortality at 100 ppm in [2] (setting [10]) was 65%; in [2] (setting [11]), 100%. Further, in data set [3], the Degree of damage entry was “+ ~ ++”.
In the case of `CCC(C)c1ccccc1OC(=O)NC` (stereo not drawn) [(C), BPMC, reference compound], the mortality at 100 ppm amounted to 6% in data set [2] (setting [10]) and 100% in data set [2] (setting [11]).
Turning to `CCOC(=O)CC(SP(=S)(OC)OC)C(=O)OCC` (stereo not drawn) [(D), Malathion, reference compound], the LC50 in data set [6] (setting [12]) was about 500 µg/mL (≈ 1510 µM).
